Source: ChEMBL document CHEMBL3044888, “Fungicidal activity of indole derivatives against some plant pathogenic fungi” (J Pestic Sci, 2010)
Converted amounts (≈) assume the structure as drawn.

What was measured:
[1] = Inhibition of polyphenoloxidase activity in Fusarium culmorum
Rhizoctonia solani [2] = assay: In vivo effect on peroxidase activity in Rhizoctonia solani assessed as RNA content at 0.1 times of IC50 concentration (reference value: 25 +/- 0.7 mg/l); assay type: functional
Macrophomina phaseolina [3] = assay: In vivo effect on peroxidase activity in Macrophomina phaseoli assessed as RNA content at 0.1 times of IC50 concentration (reference value: 16.1 +/- 0.4 mg/l); assay type: functional
Fusarium culmorum [4] = assay: In vivo effect on peroxidase activity in Fusarium culmorum assessed as DNA content at 0.25 times of IC50 concentration (reference value: 49.5 +/- 1.6 mg/l); assay type: functional
[5] = test system: Globisporangium debaryanum; assay: In vivo effect on peroxidase activity in Pythium debaryanum assessed as DNA content at 0.25 times of IC50 concentration (reference value: 31 +/- 0.8 mg/l); assay type: functional
Macrophomina phaseolina [6] = assay: Fungicidal activity against Macrophomina phaseoli assessed as inhibition of hyphal growth by radial growth test; assay type: functional, organism-based
Macrophomina phaseolina [7] = assay: In vivo effect on peroxidase activity in Macrophomina phaseoli assessed as reduced sugar content per gram of dry hyphal at 0.5 times of IC50 concentration (reference value: 7.3 +/- 0.5 mg/g of dry weight); assay type: functional
Fusarium culmorum [8] = assay: In vivo effect on peroxidase activity in Fusarium culmorum assessed as DNA content at 0.5 times of IC50 concentration (reference value: 49.5 +/- 1.6 mg/l); assay type: functional
Rhizoctonia solani [9] = assay: In vivo effect on peroxidase activity in Rhizoctonia solani assessed as non-reducing sugar content per gram of dry hyphal at 1 times of IC50 concentration (reference value: 2.8 +/- 0.2 mg/g of dry weight); assay type: functional
[10] = test system: Globisporangium debaryanum; assay: In vivo effect on peroxidase activity in Pythium debaryanum assessed as DNA content at 2 times of IC50 concentration (reference value: 31 +/- 0.8 mg/l); assay type: functional
[11] = test system: Globisporangium debaryanum; assay: In vivo effect on peroxidase activity in Pythium debaryanum assessed as RNA content at 0.1 times of IC50 concentration (reference value: 32.2 +/- 0.7 mg/l); assay type: functional
[12] = test system: Globisporangium debaryanum; assay: In vivo effect on peroxidase activity in Pythium debaryanum assessed as RNA content at 1 times of IC50 concentration (reference value: 32.2 +/- 0.7 mg/l); assay type: functional
Rhizoctonia solani [13] = assay: In vivo effect on peroxidase activity in Rhizoctonia solani assessed as reduced sugar content per gram of dry hyphal at 0.1 times of IC50 concentration (reference value: 17.3 +/- 1 mg/g of dry weight); assay type: functional
[14] = test system: Globisporangium debaryanum; assay: In vivo effect on peroxidase activity in Pythium debaryanum assessed as DNA content at 0.1 times of IC50 concentration (reference value: 31 +/- 0.8 mg/l); assay type: functional
Macrophomina phaseolina [15] = assay: In vivo effect on peroxidase activity in Macrophomina phaseoli assessed as DNA content at 0.1 times of IC50 concentration (reference value: 15.5 +/- 0.5 mg/l); assay type: functional
Rhizoctonia solani [16] = assay: In vivo effect on peroxidase activity in Rhizoctonia solani assessed as total soluble sugar content per gram of dry hyphal at 0.25 times of IC50 concentration (reference value: 20.1 +/- 0.8 mg/g of dry weight); assay type: functional
Fusarium culmorum [17] = assay: In vivo effect on peroxidase activity in Fusarium culmorum assessed as DNA content at 0.1 times of IC50 concentration (reference value: 49.5 +/- 1.6 mg/l); assay type: functional
[18] = test system: Globisporangium debaryanum; assay: In vivo effect on peroxidase activity in Pythium debaryanum assessed as RNA content at 0.25 times of IC50 concentration (reference value: 32.2 +/- 0.7 mg/l); assay type: functional
[19] = test system: Globisporangium debaryanum; assay: In vivo effect on peroxidase activity in Pythium debaryanum assessed as DNA content at 1 times of IC50 concentration (reference value: 31 +/- 0.8 mg/l); assay type: functional
Macrophomina phaseolina [20] = assay: In vivo effect on peroxidase activity in Macrophomina phaseoli assessed as total soluble sugar content per gram of dry hyphal at 0.5 times of IC50 concentration (reference value: 19.3 +/- 0.7 mg/g of dry weight); assay type: functional
Macrophomina phaseolina [21] = assay: In vivo effect on peroxidase activity in Macrophomina phaseoli assessed as DNA content at 0.25 times of IC50 concentration (reference value: 15.5 +/- 0.5 mg/l); assay type: functional
Macrophomina phaseolina [22] = assay: In vivo effect on peroxidase activity in Macrophomina phaseoli assessed as total soluble sugar content per gram of dry hyphal at 0.1 times of IC50 concentration (reference value: 19.3 +/- 0.7 mg/g of dry weight); assay type: functional
Rhizoctonia solani [23] = assay: In vivo effect on peroxidase activity in Rhizoctonia solani assessed as total soluble sugar content per gram of dry hyphal at 0.5 times of IC50 concentration (reference value: 20.1 +/- 0.8 mg/g of dry weight); assay type: functional
Rhizoctonia solani [24] = assay: In vivo effect on peroxidase activity in Rhizoctonia solani assessed as non-reducing sugar content per gram of dry hyphal at 0.1 times of IC50 concentration (reference value: 2.8 +/- 0.2 mg/g of dry weight); assay type: functional
Fusarium culmorum [25] = assay: Inhibition of peroxidase activity in Fusarium culmorum at 0.25 times of IC50 concentration
Rhizoctonia solani [26] = assay: In vivo effect on peroxidase activity in Rhizoctonia solani assessed as reduced sugar content per gram of dry hyphal at 0.5 times of IC50 concentration (reference value: 17.3 +/- 1 mg/g of dry weight); assay type: functional
[27] = test system: Globisporangium debaryanum; assay: Inhibition of peroxidase activity in Pythium debaryanum at 0.25 times of IC50 concentration
Macrophomina phaseolina [28] = assay: In vivo effect on peroxidase activity in Macrophomina phaseoli assessed as DNA content at 2 times of IC50 concentration (reference value: 15.5 +/- 0.5 mg/l); assay type: functional
Macrophomina phaseolina [29] = assay: In vivo effect on peroxidase activity in Macrophomina phaseoli assessed as DNA content at 0.5 times of IC50 concentration (reference value: 15.5 +/- 0.5 mg/l); assay type: functional
Rhizoctonia solani [30] = assay: In vivo effect on peroxidase activity in Rhizoctonia solani assessed as reduced sugar content per gram of dry hyphal at 0.25 times of IC50 concentration (reference value: 17.3 +/- 1 mg/g of dry weight); assay type: functional
Macrophomina phaseolina [31] = assay: In vivo effect on peroxidase activity in Macrophomina phaseoli assessed as RNA content at 2 times of IC50 concentration (reference value: 16.1 +/- 0.4 mg/l); assay type: functional
[32] = test system: Globisporangium debaryanum; assay: In vivo effect on peroxidase activity in Pythium debaryanum assessed as DNA content at 0.5 times of IC50 concentration (reference value: 31 +/- 0.8 mg/l); assay type: functional
Macrophomina phaseolina [33] = assay: In vivo effect on peroxidase activity in Macrophomina phaseoli assessed as reduced sugar content per gram of dry hyphal at 0.1 times of IC50 concentration (reference value: 7.3 +/- 0.5 mg/g of dry weight); assay type: functional
[34] = Activation of peroxidase activity in Rhizoctonia solani
Fusarium culmorum [35] = assay: Inhibition of peroxidase activity in Fusarium culmorum at 0.1 times of IC50 concentration
Fusarium culmorum [36] = assay: In vivo effect on peroxidase activity in Fusarium culmorum assessed as DNA content at 2 times of IC50 concentration (reference value: 49.5 +/- 1.6 mg/l); assay type: functional

Structure (SMILES) | IC50 [1] [µg/mL] | Activity (Rhizoctonia solani [2]) [mg/L] | Activity (Macrophomina phaseolina [3]) [mg/L] | Activity (Fusarium culmorum [4]) [mg/L] | Activity [5] [mg/L] | IC50 (Macrophomina phaseolina [6]) [µg/mL] | Activity (Macrophomina phaseolina [7]) [mg] | Activity (Fusarium culmorum [8]) [mg/L] | Activity (Rhizoctonia solani [9]) [mg] | Activity [10] [mg/L] | Activity [11] [mg/L] | Activity [12] [mg/L] | Activity (Rhizoctonia solani [13]) [mg] | Activity [14] [mg/L] | Activity (Macrophomina phaseolina [15]) [mg/L] | Activity (Rhizoctonia solani [16]) [mg] | Activity (Fusarium culmorum [17]) [mg/L] | Activity [18] [mg/L] | Activity [19] [mg/L] | Activity (Macrophomina phaseolina [20]) [mg] | also measured
CC(=O)n1c(-c2ccccc2)cc2ccccc21 | 41.5 (≈ 176 µM) | 23.6 | 12.9 | 29.9 | 25.8 | 93 (≈ 395 µM) | 20.8 | 28 | 0.2 | 21.6 | 27 | 18.2 | 9.7 | 26 | 11.7 | 10.8 | 43.6 | 26.8 | 17.5 | 31 | Activity (Macrophomina phaseolina [21]): 10.3 mg/L; Activity (Macrophomina phaseolina [22]): 4.2 mg; Activity (Rhizoctonia solani [23]): 6 mg; Activity (Rhizoctonia solani [24]): 2.5 mg; inhibition (Fusarium culmorum [25]): 23.7%; Activity (Rhizoctonia solani [26]): 5.6 mg; inhibition [27]: 3%; Activity (Macrophomina phaseolina [28]): 6.5 mg/L; Activity (Macrophomina phaseolina [29]): 8.3 mg/L; Activity (Rhizoctonia solani [30]): 9.6 mg; Activity (Macrophomina phaseolina [31]): 6.7 mg/L; Activity [32]: 11.3 mg/L; Activity (Macrophomina phaseolina [33]): 2.5 mg; AC50 [34]: < 11.7 µg/mL; inhibition (Fusarium culmorum [35]): 85%; Activity (Fusarium culmorum [36]): 19.5 mg/L
c1ccc(-c2cc3ccccc3[nH]2)cc1 [2-PHENYL-1H-INDOLE] | 87.6 (≈ 453 µM) | 29.4 | 6.7 | 23.7 | 19.1 | 96 (≈ 497 µM) | 2.9 | 18 | 2.2 | 23.3 | 32.1 | 30.6 | 44.3 | 30.9 | 6.4 | 71.8 | 28.6 | 19.8 | 29.4 | 4.3 | Activity (Macrophomina phaseolina [21]): 6.8 mg/L; Activity (Macrophomina phaseolina [22]): 8.7 mg; Activity (Rhizoctonia solani [23]): 19.1 mg; Activity (Rhizoctonia solani [24]): 14.1 mg; inhibition (Fusarium culmorum [25]): 26.2%; Activity (Rhizoctonia solani [26]): 16 mg; inhibition [27]: 3.7%; Activity (Macrophomina phaseolina [28]): 5.7 mg/L; Activity (Macrophomina phaseolina [29]): 8 mg/L; Activity (Rhizoctonia solani [30]): 60.3 mg; Activity (Macrophomina phaseolina [31]): 5.9 mg/L; Activity [32]: 10.9 mg/L; Activity (Macrophomina phaseolina [33]): 6.3 mg; AC50 [34]: 14.5 µg/mL (≈ 75 µM); inhibition (Fusarium culmorum [35]): 7.5%; Activity (Fusarium culmorum [36]): 23.8 mg/L
